Assays:
[1] = tested on: macrophage-mediated suppression of T-cell proliferation; assay: Macrophage suppression of T-cell proliferation assay; assay type: cell-based, human
Procedure: To examine the functional activity of Compound 1, the effects on macrophage-mediated suppression of T-cell proliferation were evaluated.
Human PBMCs were isolated from the peripheral blood of healthy donors by density gradient centrifugation on Ficoll-Hypaque (GE Healthcare, Chicago, Ill.; #17-1440-02) followed by purification with anti-CD14 Microbeads (Miltenyi Biotec; #130-050-201). Isolated CD14^+ monocytes/macrophages were incubated with 100 ng/mL M-CSF (R&D Systems; #216-MC) and 50 ng/mL TGFβ1 (R&D Systems; #240-B) at 37° C. for 6 days; 100 μL/well of CD14^+ macrophages were seeded at 0.5×10^6 cells/mL in a 96-well round-bottomed culture plate (Costar; #3799) and treated with Compound 1 overnight at 37° C. CD4^+CD25^− effector T (Teff) cells were isolated using the Dynabeads regulatory CD4^+CD25^+ T-cell kit (Life Technologies; #11363D) and the Teff cells were labeled with carboxyfluorescein succinimidyl ester (CFSE) using the CellTrace CFSE Cell Proliferation kit (ThermoFisher Scientific; #C34554). […] Teff cells were analyzed by a flow cytometer (BD LSRFortessa X-20, BD Biosciences, San Jose, Calif.) and the cell-free supernatant was tested in the Luminex assay (Millipore; #HCYTOMAG-60K_38plex) to measure the concentrations of different cytokines and chemokines.

CTG-1339 tumors = assay: Sarcoma PDX model CTG-1339 (osteosarcoma); assay type: in vivo, athymic nude mice
Procedure: Macrophages were allowed to thaw on ice before being lysed with 250 μL/well of 1× Lysis Buffer (Cell Signaling Technology; #9803) and Halt protease and phosphatase inhibitors (ThermoFisher Scientific) for 1 hour at 4° C. The lysed cells were scraped and transferred to an Eppendorf vial on ice. The lysates were centrifuged at 12,700 rpm for 15 minutes at 4° C. PDX tumors were weighed and homogenized with lysis buffer supplemented with protease and phosphatase inhibitor cocktails (Roche, Basel, Switzerland; #11836170001). Tumors were lysed on ice for 30 minutes, followed by centrifugation at 13,000 rpm for 10 minutes. Protein lysates were quantified using BCA Protein Assay Kit (Pierce, ThermoFisher Scientific; #23225). Lysates were transferred to a new tube together with 6× Laemmli SDS sample buffer (Alfa Aesar, Haverhill, Mass.) and the samples were heated for 6 minutes at 95° C. Approximately 50 μg of protein sample was loaded per well using Novex™ 8-16% Tris-Glycine Mini Gels or 4-12% Tris-Glycine Novex WedgeGels (Invitrogen, Carlsbad, Calif.). The proteins were transferred to a nitrocellulose membrane using an iBlot (ThermoFisher Scientific) dry blotting system. The membranes were blocked with 0.5% nonfat dry milk in wash buffer (100 mM NaCl, 10 mM Tris-HCl, pH 8.0, 0.1% Tween 20) for 1 hour at room temperature. The primary antibody used for pMER was from PhosphoSolutions (Aurora, Colo.; #p186-749). The remaining antibodies were obtained from Cell Signaling Technology: MER (#4319), pAXL (#5724), AXL, (#4566), GAS6 (#67202), pAKT (#4060), AKT (#9272), and β-Actin (#4970). Primary antibodies were added at 1:500 and 1:1000, respectively, in 0.5% milk/wash buffer and rocked overnight at 4° C. The membranes were washed three times in wash buffer before incubation with the secondary antibody (anti-rabbit IgG1-HRP; Cell Signaling Technology) at 1:2500 in 0.5% milk/wash buffer for 2 hours at room temperature. The membranes were washed again before the bands were detected with SuperSignal West Dura Extended Duration Chemiluminescent substrate (ThermoFisher Scientific) and were visualized using the Fluorochem M Digital Imager (Protein Simple, San Jose, Calif.).
MBT-2 cells were obtained from the Japanese Collection of Research Bioresources Cell Bank and were maintained in DMEM supplemented with 10% FBS. MC38 cells were obtained from the NCI. 4T1 cells were obtained from ATCC and maintained in RPMI media supplemented with 10% FBS. For MBT-2 experiments, 5×10^5 MBT-2 cells were inoculated subcutaneously into the right hind flank of 6- to 8-week-old C3H mice or athymic nude mice (Charles River Laboratories, Wilmington, Mass.). […] Mice were monitored for tumor growth and overt tolerability over the course of the experiment. […]

Compound: CC(C)C(=O)N1CCC(c2cc(-c3ccc(NC(=O)c4cn(C(C)C)c(=O)n(-c5ccccn5)c4=O)cc3)c3c(N)ncnn23)CC1 [Compound 1, N-(4-(4-Amino-7-(1-isobutyrylpiperidin-4-yl)pyrrolo[1,2-f][1,2,4]triazin-5-yl)phenyl)-1-isopropyl-2,4-dioxo-3-(pyridin-2-yl)-1,2,3,4-tetrahydropyrimidine-5-carboxamide]
- effect on macrophage-mediated suppression of T-cell proliferation ([1]; FIG. 5A): partially reversed macrophage-mediated suppression of T-cell proliferation
- IFN-γ production ([1]; macrophage/T-cell co-culture supernatant, FIG. 5B): increase in IFN-γ production
- antitumor response (CTG-1339 tumors; CTG-1339, 10, 30, 100 mg/kg BID oral, FIG. 9C): resistant
- pAKT in tumors (Western blot) (CTG-1339 tumors; CTG-1339 tumors, FIG. 9D): only inhibited in CTG-2041
- pAXL and pMER in tumors (Western blot) (CTG-1339 tumors; CTG-1339 tumors, FIG. 9D): inhibited
- total MER levels in tumors (Western blot) (CTG-1339 tumors; CTG-1339 tumors, FIG. 9D): increased

Source: US12214036B2, “Combination therapy comprising AXL/MER and PD-1/PD-L1 inhibitors” (Incyte Corporation, priority 2020, dated 2025)
